The values that follow come from PubChem BioAssay AID743319 (Broad Institute, 2014).

Calls of active or inactive are those of the source.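 Rule for the calls: active = fitted curve reaches 200% activation at or below the highest valid dose tested for that compound; inconclusive = flat fit between 30 and 70% activation, or unreliable fit; inactive = the rest.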

One assay deals with Endoplasmic reticulum aminopeptidase 2 (Homo sapiens) (UniProt Q6P179). As to the kind of experiment: enhanced ERAP2 Arg-AMC hydrolysis – biochemical, fluorescence plate reader, cherry-picked samples, selectivity assay for selective ERAP1 modulator project, dose response (AID 743319). Particulars: recombinant ERAP2, Arg-AMC cleavage fluorescence, 1 h.
Sequence of Endoplasmic reticulum aminopeptidase 2 (Homo sapiens) (Q6P179 whole entry, looked up): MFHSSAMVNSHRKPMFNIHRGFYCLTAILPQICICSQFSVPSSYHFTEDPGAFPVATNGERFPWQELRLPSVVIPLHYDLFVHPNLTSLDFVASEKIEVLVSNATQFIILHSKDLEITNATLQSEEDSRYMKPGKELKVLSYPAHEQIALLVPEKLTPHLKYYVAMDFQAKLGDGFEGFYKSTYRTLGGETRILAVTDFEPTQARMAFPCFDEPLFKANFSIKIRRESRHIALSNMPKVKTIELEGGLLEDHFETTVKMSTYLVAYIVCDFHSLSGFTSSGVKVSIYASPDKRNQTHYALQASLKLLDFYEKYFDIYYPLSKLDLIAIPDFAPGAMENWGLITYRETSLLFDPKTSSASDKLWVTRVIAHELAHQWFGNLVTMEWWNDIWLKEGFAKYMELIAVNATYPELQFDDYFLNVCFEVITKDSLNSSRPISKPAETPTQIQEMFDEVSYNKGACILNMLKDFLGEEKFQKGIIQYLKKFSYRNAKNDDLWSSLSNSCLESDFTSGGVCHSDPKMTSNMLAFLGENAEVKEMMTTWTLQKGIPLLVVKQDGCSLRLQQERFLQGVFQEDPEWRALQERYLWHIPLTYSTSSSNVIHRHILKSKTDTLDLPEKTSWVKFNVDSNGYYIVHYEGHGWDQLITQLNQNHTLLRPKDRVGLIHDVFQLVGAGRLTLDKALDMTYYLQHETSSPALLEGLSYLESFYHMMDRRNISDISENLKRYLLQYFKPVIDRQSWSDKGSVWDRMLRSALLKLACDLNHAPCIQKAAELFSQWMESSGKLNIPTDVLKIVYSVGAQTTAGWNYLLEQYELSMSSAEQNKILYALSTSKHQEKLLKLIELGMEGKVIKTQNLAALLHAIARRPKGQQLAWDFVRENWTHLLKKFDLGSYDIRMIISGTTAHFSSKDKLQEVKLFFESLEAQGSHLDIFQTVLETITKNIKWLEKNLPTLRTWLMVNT
In the case of `O=c1cc(CN2CCN(Cc3ccccc3)CC2)c2ccc(O)cc2o1`, the AC200 was 3540 nM.

On to `Cc1cc(=O)oc2c(CN3CCCCC3)c(O)ccc12`, for which the AC200 is 1920 nM.

For the compound `O=c1ccc2cc(O[C@@H]3O[C@H](CO)[C@@H](O)[C@H](O)[C@H]3O)c(O)cc2o1`, the AC200 is 687 nM.

Turning to `CC(=O)N1[C@@H]2c3ccc(/C=C/c4ccccc4)c(=O)n3C[C@H]1[C@H](CO)[C@H]2C(=O)N(C)C`, the AC200 is 1570 nM.

With `CCCc1cc(=O)oc2c(CN(CC)CC)c(O)c(Cl)cc12`, the AC200 is 1330 nM.

With `N#Cc1c(N)n(CCNC(=O)c2ccccc2)c2nc3ccccc3nc12`, the AC200 is 4630 nM.

`Cc1c(C)c2ccc(O)c(CN3CCN(C)CC3)c2oc1=O`: the AC200 was 3430 nM.

Consider `Cc1ccc(S(=O)(=O)c2cc3ccc(O)cc3oc2=O)cc1C`, for which the AC200 was 721 nM.

With `Cc1cc(=O)oc2c(CN3CCCC3)c(O)c(Cl)cc12`, the AC200 was 1400 nM.

For `O=c1cc(CN2CCOCC2)c2cc(Cl)c(O)cc2o1`, the AC200 was 2510 nM.

Consider `CC(=O)N1[C@@H]2Cn3c(ccc(/C=C/c4ccccc4)c3=O)[C@H]1[C@@H](C(=O)NCC1CC1)[C@@H]2CO`, for which the AC200 is 2500 nM.

For `CCc1c(C)c2cc(Cl)c(O)c(CN(CC)CC)c2oc1=O`, the AC200 is 1170 nM.

The same assay, now with this note: recombinant ERAP2, Arg-AMC cleavage fluorescence, 1 h; at 5.6 µM (top of the series).
As to `C[C@@H]1CCCCO[C@@H](CN(C)Cc2ccccc2)[C@@H](C)CN([C@H](C)CO)C(=O)c2cc(NS(=O)(=O)c3cccs3)ccc2O1`, the activation is 12.1% (inactive).

The same assay, now with this note: recombinant ERAP2, Arg-AMC cleavage fluorescence, 1 h; at 11 µM (top of the series).
As to `COc1ccc(NC(=O)Nc2ccc3c(c2)C(=O)N([C@H](C)CO)C[C@@H](C)[C@H](CN(C)Cc2ccc(C(=O)O)cc2)OCCCC[C@@H](C)O3)cc1`, the activation is 12.3% (inactive).

On to `O=C(C[C@H]1CC[C@H]2[C@@H](COC[C@@H](O)CN2C(=O)Nc2cccc(Cl)c2)O1)N1CCCCC1`, for which the activation is 8.71% (inactive).

On to `O=C(O)c1ccccc1NS(=O)(=O)c1cccc(-n2sc3ccccc3c2=O)c1`, for which the activation was 3.47% (inactive).

Turning to `CCC(=O)N(C)C[C@@H]1Oc2ncc(C#Cc3ccncc3)cc2C(=O)N([C@@H](C)CO)C[C@@H]1C`, the activation is -17.3% (inactive).

As for `C[C@H](CO)N1C[C@H](C)[C@H](CN(C)CC2CCCCC2)Oc2c(NC(=O)Nc3ccc4c(c3)OCO4)cccc2C1=O`, the activation was -0.254% (inactive).

Turning to `COc1ccc(NC(=O)Nc2cccc3c2O[C@H](CN(C)Cc2ccc(C(=O)O)cc2)[C@H](C)CN([C@H](C)CO)C3=O)cc1`, the activation was 15.1% (inactive).

For `CCCN(C)C[C@@H]1OCCCC[C@H](C)Oc2ccc(NC(=O)Nc3ccc(F)cc3)cc2C(=O)N([C@H](C)CO)C[C@@H]1C`, the activation is 10.8% (inactive).

Take `COc1ccc(CN(C)C[C@@H]2OCCCC[C@H](C)Oc3ccc(NS(=O)(=O)c4cccs4)cc3C(=O)N([C@H](C)CO)C[C@@H]2C)cc1`: the activation is 10.2% (inactive).

Turning to `C[C@@H]1CCCCO[C@H](CN(C)Cc2ccccc2)[C@H](C)CN([C@H](C)CO)C(=O)c2cc(NS(=O)(=O)c3ccccc3)ccc2O1`, the activation was 22.4% (inactive).

In the case of `C[C@H](CO)N1C[C@H](C)[C@H](CN(C)Cc2ccc(C(=O)O)cc2)Oc2c(NC(=O)Nc3ccccc3)cccc2C1=O`, the activation is 22.8% (inactive).

In the case of `Cc1noc(C)c1S(=O)(=O)Nc1ccc2c(c1)C(=O)N([C@H](C)CO)C[C@@H](C)[C@@H](CN(C)CC1CCCCC1)OCCCC[C@@H](C)O2`, the activation was 1.44% (inactive).

For the compound `O=C(C[C@@H]1CC[C@@H]2[C@H](COC[C@H](O)CN2C(=O)Nc2cccc(Cl)c2)O1)N1CCCCC1`, the activation is 2.69% (inactive).

In the case of `N#Cc1c(N2CCNCC2)nc(-c2ccco2)c2c1CCCC2`, the activation is 31.3% (inactive).

With `COC(=O)[C@H]1[C@H](CO)[C@H]2Cn3c(ccc(-c4ccncc4)c3=O)[C@H]2N1Cc1ccccc1F`, the activation is 15.2% (inactive).

For the compound `CCCNC(=O)C[C@@H]1CC[C@@H]2[C@H](COC[C@H](O)CN2C(=O)Nc2cccc(Cl)c2)O1`, the activation was 22.2% (inactive).
